Data as given in patent US8648066B2 (Exelixis, Inc., priority 2009, dated 2014).

What was measured:
mTOR/GbL/Raptor (mTORC1) = mTOR/GbL/Raptor (mTORC1) (Homo sapiens, UniProt P42345); assay: mTOR/GbL/Raptor (mTORC1) ELISA assay; format: biochemical; details: phosphorylation of 4E-BP1; 0.2 nM mTORC1, 10 μM ATP; read-out: IC50 in this assay (mTORC1 ELISA)
Method in brief: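 Human mTORC1 (0.2 nM) phosphorylated 50 nM His-tagged 4E-BP1 with 10 µM ATP in HEPES pH 7.2 containing 10 mM MnCl2, 120 min at ambient temperature. Substrate was captured on Ni-chelate plates; phospho-4E-BP1 was detected by primary antibody and HRP secondary with luminescence.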

PI3Kα = PI3Kα (Homo sapiens, UniProt P42336); assay: PI3K biochemical assay (luciferase-luciferin ATP consumption); details: 1.5 nM enzyme, 1 μM ATP, 10 μM PIP2; read-out: IC50 for PI3Kα in this assay
Sequence of PI3Kα (P42336 whole entry, species assumed): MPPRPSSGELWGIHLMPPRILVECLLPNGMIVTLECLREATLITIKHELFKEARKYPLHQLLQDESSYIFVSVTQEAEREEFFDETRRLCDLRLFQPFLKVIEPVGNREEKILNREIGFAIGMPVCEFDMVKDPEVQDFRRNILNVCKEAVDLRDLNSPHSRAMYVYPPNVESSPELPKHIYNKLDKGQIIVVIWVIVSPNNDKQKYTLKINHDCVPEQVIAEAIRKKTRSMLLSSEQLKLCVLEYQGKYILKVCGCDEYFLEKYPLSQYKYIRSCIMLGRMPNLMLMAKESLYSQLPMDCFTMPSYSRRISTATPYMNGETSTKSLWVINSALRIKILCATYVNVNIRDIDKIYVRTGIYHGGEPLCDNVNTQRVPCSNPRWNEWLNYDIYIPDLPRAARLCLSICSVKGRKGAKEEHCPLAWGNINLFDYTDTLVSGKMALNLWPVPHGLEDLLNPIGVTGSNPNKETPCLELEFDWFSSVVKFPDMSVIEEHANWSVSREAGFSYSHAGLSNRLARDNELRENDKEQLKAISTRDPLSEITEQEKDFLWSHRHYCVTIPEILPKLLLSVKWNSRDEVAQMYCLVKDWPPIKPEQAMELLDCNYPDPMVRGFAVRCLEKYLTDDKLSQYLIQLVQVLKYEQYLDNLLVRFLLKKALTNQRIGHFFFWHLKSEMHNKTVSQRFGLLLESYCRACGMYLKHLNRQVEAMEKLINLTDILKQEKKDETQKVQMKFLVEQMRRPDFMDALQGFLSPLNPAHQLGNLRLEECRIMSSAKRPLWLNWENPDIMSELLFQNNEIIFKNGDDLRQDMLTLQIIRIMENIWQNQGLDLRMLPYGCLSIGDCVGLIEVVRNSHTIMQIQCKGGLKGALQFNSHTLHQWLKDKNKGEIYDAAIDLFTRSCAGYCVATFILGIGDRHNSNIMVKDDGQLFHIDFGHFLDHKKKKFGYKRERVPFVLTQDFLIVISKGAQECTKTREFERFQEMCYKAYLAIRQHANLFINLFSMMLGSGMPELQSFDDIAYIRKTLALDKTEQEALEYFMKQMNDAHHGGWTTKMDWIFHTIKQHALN
Sequence of PI3Kα (P27986 whole entry partner, species assumed): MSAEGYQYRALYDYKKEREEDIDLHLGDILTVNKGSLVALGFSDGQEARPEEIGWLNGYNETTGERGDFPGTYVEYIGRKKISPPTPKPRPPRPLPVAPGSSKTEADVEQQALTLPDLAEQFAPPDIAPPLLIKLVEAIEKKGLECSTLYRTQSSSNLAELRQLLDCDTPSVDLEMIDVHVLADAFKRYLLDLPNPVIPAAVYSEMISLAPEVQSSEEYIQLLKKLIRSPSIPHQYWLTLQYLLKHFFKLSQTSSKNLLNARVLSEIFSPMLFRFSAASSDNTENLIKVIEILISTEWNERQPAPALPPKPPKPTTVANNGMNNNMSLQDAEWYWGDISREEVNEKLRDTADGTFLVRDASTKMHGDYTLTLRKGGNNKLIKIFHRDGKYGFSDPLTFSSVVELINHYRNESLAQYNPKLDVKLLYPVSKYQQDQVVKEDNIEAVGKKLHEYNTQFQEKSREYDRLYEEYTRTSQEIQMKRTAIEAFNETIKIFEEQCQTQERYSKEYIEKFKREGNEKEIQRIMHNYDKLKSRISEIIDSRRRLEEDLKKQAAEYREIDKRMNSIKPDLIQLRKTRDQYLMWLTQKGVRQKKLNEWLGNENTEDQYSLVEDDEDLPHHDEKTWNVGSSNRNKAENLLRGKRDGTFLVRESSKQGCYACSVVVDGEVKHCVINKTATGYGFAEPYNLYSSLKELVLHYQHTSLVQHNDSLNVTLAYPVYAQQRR
Protocol: PI3Kα activity is measured as the percent of ATP consumed following the kinase reaction using luciferase-luciferin-coupled chemiluminescence. Reactions were conducted in 384-well white, medium binding microtiter plates (Greiner). Kinase reactions were initiated by combining test compounds, ATP, substrate (PIP2), and kinase in a 20 μL volume in a buffer solution. The standard PI3Kalpha assay buffer is composed 50 mM Tris, pH 7.5, 1 mM EGTA, 10 mM MgCl2, 1 mM DTT and 0.03% CHAPS. The standard assay concentrations for enzyme, ATP, and substrate are 1.5 nM, 1 μM, and 10 μM, respectively. The reaction mixture was incubated at ambient temperature for approximately 2 h. Following the kinase reaction, a 10 μL aliquot of luciferase-luciferin mix (Promega Kinase-Glo) was added and the chemiluminescence signal measured using a Victor2 plate reader (Perkin Elmer). Total ATP consumption was limited to 40-60% and IC50 values of control compounds correlate well with literature references. Substituting PI3Kα with PI3Kβ, PI3Kγ, or PI3Kδ, the inhibitory activity of the compounds for the other isoforms of I3K were measured.

SMILES | IC50 (mTOR/GbL/Raptor (mTORC1)) | IC50 (PI3Kα)
c1ccc2c(N3CCOc4ccc(-c5ccsc5)cc4C3)ccnc2c1 [Example 204, 4-quinolin-4-yl-7-(3-thienyl)-2,3,4,5-tetrahydro-1,4-benzoxazepine] | ≥ 2 µM | 1 to 2 µM
c1ccc2c(N3CCOc4ccc(-c5ccc6nc(C7CCCC7)[nH]c6c5)cc4C3)ccnc2c1 [Example 198, 7-(2-cyclopentyl-1H-benzimidazol-6-yl)-4-quinolin-4-yl-2,3,4,5-tetrahydro-1,4-benzoxazepine] | ≥ 2 µM | ≥ 2 µM
CCn1ccc2cc(-c3ccc4c(c3)CN(c3ccnc5ccccc35)CCO4)cnc21 [Example 223, 7-(1-ethyl-1H-pyrrolo[2,3-b]pyridin-5-yl)-4-quinolin-4-yl-2,3,4,5-tetrahydro-1,4-benzoxazepine] | ≥ 2 µM | ≥ 2 µM
OCc1ncc(-c2ccc(-c3ccc4c(c3)CN(c3ncnc5cccnc35)CCO4)cc2)[nH]1 [Example 212, {5-[4-(4-pyrido[3,2-d]pyrimidin-4-yl-2,3,4,5-tetrahydro-1,4-benzoxazepin-7-yl)phenyl]-1H-imidazol-2-yl}methanol] | 0.25 to 1 µM | ≥ 2 µM
Cc1ncnc(N2CCOc3ccc(-c4ccc(C(=O)N[C@H]5CCNC5)cc4)cc3C2)c1Cc1ccc(F)cc1 [Example 173, 4-(4-{5-[(4-fluorophenyl)methyl]-6-methylpyrimidin-4-yl}-2,3,4,5-tetrahydro-1,4-benzoxazepin-7-yl)-N-[(3S)-pyrrolidin-3-yl]benzamide] | 0.25 to 1 µM | ≥ 2 µM
c1ccc2ncc(-c3ccc4c(c3)CN(c3ccnc5ccccc35)CCO4)cc2c1 [Example 205, 7-quinolin-3-yl-4-quinolin-4-yl-2,3,4,5-tetrahydro-1,4-benzoxazepine] | 1 to 2 µM | 1 to 2 µM
Cc1nc2ccc(-c3ccc4c(c3)CN(c3ncnc5[nH]ncc35)CCO4)cc2[nH]1 [Example 52, 7-(2-methyl-1H-benzimidazol-6-yl)-4-(1H-pyrazolo[3,4-d]pyrimidin-4-yl)-2,3,4,5-tetrahydro-1,4-benzoxazepine] | 1 to 2 µM | ≥ 2 µM
Cc1nccc(N2CCOc3ccc(-c4cnc5nc(C)[nH]c5c4)cc3C2)n1 [Example 85, 7-(2-methyl-1H-imidazo[4,5-b]pyridin-6-yl)-4-(2-methylpyrimidin-4-yl)-2,3,4,5-tetrahydro-1,4-benzoxazepine] | 0.05 to 0.25 µM | 1 to 2 µM
Cc1nc2ccc(-c3ccc4c(c3)CN(c3ncccn3)CCO4)cc2[nH]1 [Example 106, 7-(2-methyl-1H-benzimidazol-6-yl)-4-pyrimidin-2-yl-2,3,4,5-tetrahydro-1,4-benzoxazepine] | 1 to 2 µM | 1 to 2 µM

More lines, now with the values ahead:

IC50 (mTOR/GbL/Raptor (mTORC1)) | IC50 (PI3Kα) | SMILES
≥ 2 µM | 1 to 2 µM | COc1cccc(-c2ccc3c(c2)CN(c2nc(CN(C)C)nc4c2CC(C)(C)CC4)CCO3)c1 [Example 328, 1-(6,6-dimethyl-4-{7-[3-(methyloxy)phenyl]-2,3-dihydro-1,4-benzoxazepin-4(5H)-yl]-5,6,7,8-tetrahydroquinazolin-2-yl)-N,N-dimethylmethanamine]
0.25 to 1 µM | 1 to 2 µM | Cc1c(N2CCOc3ccc(-c4cnc5nc(C6CC6)[nH]c5c4)cc3C2)ncnc1N(C)[C@H](C)c1ccccc1 [Example 535, 6-[7-(2-cyclopropyl-1H-imidazo[4,5-b]pyridin-6-yl)-2,3-dihydro-1,4-benzoxazepin-4(5H)-yl]-N,5-dimethyl-N-[(1R)-1-phenylethyl]pyrimidin-4-amine]
≥ 2 µM | 1 to 2 µM | COc1ccc2c(N3CCOc4ccc(-c5ccc6ncsc6c5)cc4C3)nc(C)nc2c1 [Example 294, 7-(1,3-benzothiazol-6-yl)-4-[2-methyl-7-(methyloxy)quinazolin-4-yl]-2,3,4,5-tetrahydro-1,4-benzoxazepine]
0.25 to 1 µM | 1 to 2 µM | COc1cc(-c2ccc3c(c2)CN(c2nc(CN(C)C)nc4c2CC(C)(C)CC4)CCO3)ccc1Cl [Example 326]
0.25 to 1 µM | 1 to 2 µM | Cc1nc2ncc(-c3ccc4c(c3)CN(c3ncnc5c3C(C(F)(F)F)CCC5)CCO4)cc2[nH]1 (stereo not shown) [Example 562, 7-(2-methyl-1H-imidazo[4,5-b]pyridin-6-yl)-4-[5-(trifluoromethyl)-5,6,7,8-tetrahydroquinazolin-4-yl]-2,3,4,5-tetrahydro-1,4-benzoxazepine]
